Data reported in patent publication US10952431B2, “Releasable encapsulation compositions” (Battelle Memorial Institute, priority 2016, dated 2021).

Experiment: Particle size distribution before and after encapsulation
Format: physicochemical
Conditions: FIG. 6A, non-encapsulated
Text: FIGS. 6A-6B show charts of the particle size distribution of TAED. […] Upon encapsulation, approximately 50% of the particles are distributed in the particle size range of 1 and 2 microns. This information also confirms the TAED is coated with the nonionic amphiphilic graft copolymer (PLMA-g-PEG).

CC(=O)N(CCN(C(C)=O)C(C)=O)C(C)=O [TAED, tetraacetylethylene-diamine]
particle size (majority of particles): 20-30 microns
